The data set is described as follows: Stability test (relationship between melting start temperature and stability) of lansoprazole enantiomer crystals. To be noted: for appearance after stability tests (FIG. 1): 40° C. 2 weeks, 50° C. 2 weeks and 60° C. 2 weeks, compared with before test; for 60° C. one month residual ratio: crystal, stability test at 60° C. for one month. Format: physicochemical. How it is done:
Stability Test (Relationship Between Melting Start Temperature and Stability)
Various (R)-lansoprazole crystals obtained in the above-mentioned Reference Examples and Examples were subjected to a stability test at 60° C. for one month.
The crystal of (R)-lansoprazole was subjected to a 40° C. one month stability test.
In FIG. 1, the appearance of a crystal (Example 1) having a melting start temperature of about 134° C. and a crystal (Reference Example 6) having a melting start temperature of about 130° C. before stability test and after stability tests (40° C. 2 weeks, 50° C. 2 weeks and 60° C. 2 weeks) is shown.

Setting [1] is: initial (before 40° C. one month stability test).

On to `Cc1c(OCC(F)(F)F)ccnc1C[S@@+]([O-])c1nc2ccccc2[nH]1` [Example 1, (R)-2-[[[3-methyl-4-(2,2,2-trifluoroethoxy)-2-pyridinyl]methyl]sulfinyl]-1H-benzimidazole], for which the “appearance after stability tests (FIG. 1)” value was “did not show changes in the appearance” and the “60° C. one month residual ratio” value was determined as 99.7%.

As to `Cc1c(OCC(F)(F)F)ccnc1C[S@@+]([O-])c1nc2ccccc2[nH]1` [Reference Example 7, (R)-2-[[[3-methyl-4-(2,2,2-trifluoroethoxy)-2-pyridinyl]methyl]sulfinyl]-1H-benzimidazole, reference compound], for the setting “40° C. one month”, the analogous material content is reported as 4.6%, the appearance result is reported as “brown” and the content came to 93.8%. Also, under setting [1], the analogous material content is recorded as 0.1%, the appearance result is reported as “almost white” and the content was found to be 99.6%.

For `Cc1c(OCC(F)(F)F)ccnc1C[S@@+]([O-])c1nc2ccccc2[nH]1` [Example 6, (R)-2-[[[3-methyl-4-(2,2,2-trifluoroethoxy)-2-pyridinyl]methyl]sulfinyl]-1H-benzimidazole], the “60° C. one month residual ratio” value amounted to 99.2%.

`Cc1c(OCC(F)(F)F)ccnc1C[S@@+]([O-])c1nc2ccccc2[nH]1` [Reference Example 3, (R)-2-[[[3-methyl-4-(2,2,2-trifluoroethoxy)-2-pyridinyl]methyl]sulfinyl]-1H-benzimidazole, reference compound]: the “60° C. one month residual ratio” value amounted to 89.8%.

Turning to `Cc1c(OCC(F)(F)F)ccnc1C[S@@+]([O-])c1nc2ccccc2[nH]1` [Example 2, (R)-2-[[[3-methyl-4-(2,2,2-trifluoroethoxy)-2-pyridinyl]methyl]sulfinyl]-1H-benzimidazole], the “60° C. one month residual ratio” value is recorded as 100%.

Regarding `Cc1c(OCC(F)(F)F)ccnc1C[S@@+]([O-])c1nc2ccccc2[nH]1` [Example 11, (R)-2-[[[3-methyl-4-(2,2,2-trifluoroethoxy)-2-pyridinyl]methyl]sulfinyl]-1H-benzimidazole], where the note is “40° C. one month”, the analogous material content worked out at 0.2%, the appearance result is “almost white” and the content worked out at 99.7%. Further, under setting [1], the analogous material content is on record as 0.2%, the appearance result is “almost white” and the content was found to be 99.5%.

In the case of `Cc1c(OCC(F)(F)F)ccnc1C[S@@+]([O-])c1nc2ccccc2[nH]1` [Reference Example 6, (R)-2-[[[3-methyl-4-(2,2,2-trifluoroethoxy)-2-pyridinyl]methyl]sulfinyl]-1H-benzimidazole, reference compound], the “appearance after stability tests (FIG. 1)” value was “showed appreciably degraded appearance” and the “60° C. one month residual ratio” value is reported as 93.8%.

These data come from patent US20080306118A1, “Process for the crystallization of (R) - or (S) - Lansoprazole” (Takeda Pharmaceutical Company Limited, priority 2000, published 2008).
